Counter-ions that a name gives are not always drawn.
Molecular target: T1, recombinant human mPGES-1 (Homo sapiens, UniProt O14684)
T1 construct: made in house; host or cells: Rosetta E. coli (microsomal/membrane fraction)
T1 sequence (O14684 1-152): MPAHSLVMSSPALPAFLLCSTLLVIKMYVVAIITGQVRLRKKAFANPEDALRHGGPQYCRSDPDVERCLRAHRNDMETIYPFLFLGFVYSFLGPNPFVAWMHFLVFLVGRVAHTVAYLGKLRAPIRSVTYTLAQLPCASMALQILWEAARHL
Test: mPGES-1 inhibition, HTRF detection of PGE2
Format: biochemical
Protocol: Microsomes from Rosetta E. coli bacteria expressing recombinant human mPGES-1 is dissolved in 0.1 M KPi pH 7.4 buffer containing 2.5 mM GSH. 50 μl of the enzyme is subsequently dispensed in a 384-well plate. 0.5 μl of the inhibitor dissolved in DMSO at is thereafter added to each well and incubated for 25 minutes at room temperature. Subsequently, 2 μl of PGH2 dissolved in an appropriate solvent is added to each well and after one minute the acidified stop solution containing FeCl2 is added. 4 μl of the total volume is transferred to a separate plate and diluted 750-fold in two separate steps before HTRF detection of PGE2.
The HTRf detection is performed by the use of a commercially available kit from CisBio essentially according to the manufacturer's protocol. Briefly, 10 μl of the diluted sample is transferred to a white 384-well plate. 5 μl of d2 and 5 μl Eu3+-Cryptate labeled anti-PGE2 is added to each well containing samples by the use of a Multidrop. The plate is covered with a plastic self-adhesive film, centrifuged at 1200 rpm for 1 minute and subsequently stored at +4° C. over night.
After over night incubation the fluorescence is measured by the use of an appropriate microplate reader. The fluorescence of europium cryptate, and d2 are measured using the following excitation and emission wavelength, europium cryptate: λmax^ex=307 nm, λmax^em=620 nm and d2: λmax^ex=620 nm, λmax^em=665 nm), respectively. The extent of the specific FRET is measured as a ratio of the emission intensity at 665 nm vs. that at 620 nm. A standard curve using synthetic PGE2 is used to quantify the amount of PGE2 in unknown samples.

Row | SMILES | inhibition at 10 µM [%] | inhibition at 1 µM [%]
1 | CC(C)n1c(Nc2c(Cl)cccc2Cl)nc2cc(C(=O)NC3CCC(C)(C)CC3)cnc21 [Example 505, 2-(2,6-Dichlorophenylamino)-N-(4,4-dimethylcyclohexyl)-3-isopropyl-3H-imidazo[4,5-b]pyridine-6-carboxamide] | 100 | 
2 | Cn1c(Nc2c(Cl)cccc2Cl)nc2cc(C(=O)NC3CCC4(CC4)C3)cnc21 (centres unmarked) [Example 506, 2-(2,6-Dichlorophenylamino)-3-methyl-N-(spiro[2.4]heptan-5-yl)-3H-imidazo[4,5-b]pyridine-6-carboxamide] | 100 | 
3 | CCCC[C@@H](C)NC(=O)c1cnc2c(c1)nc(Nc1c(Cl)cccc1Cl)n2C [Example 508, (R)-2-(2,6-Dichlorophenylamino)-N-(hexan-2-yl)-3-methyl-3H-imidazo[4,5-b]pyridine-6-carboxamide] | 94 | 
4 | CC(C)n1c(Nc2c(F)cccc2Cl)nc2cc(C(=O)NC3CCC(C)(C)CC3)cnc21 [Example 511, 2-(2-Chloro-6-fluorophenylamino)-N-(4,4-dimethylcyclohexyl)-3-isopropyl-3H-imidazo[4,5-b]pyridine-6-carboxamide] | 96 | 
5 | CCCC[C@@H](C)NC(=O)c1cnc2[nH]c(Nc3c(Cl)cccc3Cl)nc2c1 [Example 517, (R)-2-(2,6-Dichlorophenylamino)-N-(hex-2-yl)-3H-imidazo[4,5-b]pyridine-6-carboxamide] | 100 | 
6 | CC#CCn1c(Nc2c(Cl)cccc2Cl)nc2cc(C(=O)NC3CCCCC3)cnc21 [Example 523, 3-(But-2-ynyl)-N-cyclohexyl-2-(2,6-dichlorophenylamino)-3H-imidazo[4,5-b]pyridine-6-carboxamide] | 96 | 
7 | CCCC[C@H](C)NC(=O)c1cnc2c(c1)nc(Nc1c(Cl)cccc1Cl)n2C [Example 527, (S)-2-(2,6-Dichlorophenylamino)-N-(hex-2-yl)-3-methyl-3H-imidazo[4,5-b]pyridine-6-carboxamide] | 96 | 
8 | O=C(N[C@H]1CC[C@H](C(F)F)CC1)c1cnc2[nH]c(Nc3c(Cl)cccc3Cl)nc2c1 [Example 535, 2-(2,6-Dichlorophenylamino)-N-((1r,4r)-4-(difluoromethyl)cyclohexyl)-3H-imidazo[4,5-b]pyridine-6-carboxamide] | 100 | 
9 | CC(C)n1c(Nc2ccccc2Cl)nc2cc(C(=O)NC3CCC(C)(C)CC3)cnc21 [Example 541, 2-(2-Chlorophenylamino)-N-(4,4-dimethylcyclohexyl)-3-isopropyl-3H-imidazo[4,5-b]pyridine-6-carboxamide hydrochloride] | 74 | 
10 | Cn1c(Nc2c(Cl)cccc2Cl)nc2cc(C(=O)N[C@H]3CC[C@H](C(F)F)CC3)cnc21 [Example 560] | 93 | 
11 | Cn1c(Nc2c(F)cccc2C(F)(F)F)nc2cc(C(=O)Nc3ccc(Br)cc3)c(OCC(F)F)nc21 [Example 771, N-(4-Bromophenyl)-2-(2-fluoro-6-trifluoromethylphenylamino)-5-(2,2-difluoro-ethoxy)-3-methyl-3H-imidazo[4,5-b]pyridine-6-carboxamide] |  | 100
12 | Cn1c(Nc2ccccc2C(F)(F)F)nc2cc(C(=O)Nc3ccc(Br)cc3)c(OCC(F)F)nc21 [Example 772, N-(4-Bromo-phenyl)-2-(2-trifluoromethyl-phenylamino)-5-(2,2-difluoroethoxy)-3-methyl-3H-imidazo[4,5-b]pyridine-6-carboxamide] |  | 100
13 | Cn1c(Nc2c(F)cccc2Cl)nc2cc(C(=O)Nc3ccc(Br)cc3)c(OCC(F)F)nc21 [Example 773, N-(4-Bromo-phenyl)-2-(2-fluoro-6-chloro-phenylamino)-5-(2,2-difluoroethoxy)-3-methyl-3H-imidazo[4,5-b]pyridine-6-carboxamide] |  | 100
14 | O=C(Nc1ccc(Br)cc1)c1cc2nc(Nc3c(F)cccc3C(F)(F)F)[nH]c2nc1OCC(F)F [Example 774, N-(4-Bromo-phenyl)-2-(2-fluoro-6-trifluoromethyl-phenylamino)-5-(2,2-difluoroethoxy)-3H-imidazo[4,5-b]pyridine-6-carboxamide] |  | 100
15 | O=C(Nc1ccc(Br)cc1)c1cc2nc(Nc3ccccc3C(F)(F)F)[nH]c2nc1OCC(F)F [Example 775, N-(4-Bromo-phenyl)-2-(2-trifluoromethyl-phenylamino)-5-(2,2-difluoroethoxy)-3H-imidazo[4,5-b]pyridine-6-carboxamide] |  | 95
16 | O=C(Nc1ccc(Br)cc1)c1cc2nc(Nc3c(F)cccc3Cl)[nH]c2nc1OCC(F)F [Example 776, N-(4-Bromo-phenyl)-2-(2-fluoro-6-chloro-phenylamino)-5-(2,2-difluoroethoxy)-3H-imidazo[4,5-b]pyridine-6-carboxamide] |  | 100
17 | Cn1c(Nc2c(Cl)cccc2C(F)(F)F)nc2cc(C(=O)N[C@H]3CC[C@H](C(F)(F)F)CC3)c(OCC(F)F)nc21 [Example 777, 2-(2-Chloro-6-trifluoromethyl-phenylamino)-5-(2,2-difluoro-ethoxy)-N-(trans-4-trifluoromethyl-cyclohexyl)-3-methyl-3H-imidazo[4,5-b]pyridine-6-carboxamide] |  | 98
18 | O=C(N[C@H]1CC[C@H](C(F)(F)F)CC1)c1cc2nc(Nc3c(Cl)cccc3C(F)(F)F)[nH]c2nc1OCC(F)F [Example 778, 2-(2-Chloro-6-trifluoromethyl-phenylamino)-5-(2,2-difluoro-ethoxy)-N-(trans-4-trifluoromethyl-cyclohexyl)-3H-imidazo[4,5-b]pyridine-6-carboxamide] |  | 98
19 | Cn1c(Nc2c(Cl)cnc(Cl)c2Cl)nc2cc(C(=O)N[C@H]3CC[C@H](C(F)(F)F)CC3)c(OCC(F)F)nc21 [Example 779, 2-(2,3,5-Trichloro-pyridin-4-yl-amino)-5-(2,2-difluoro-ethoxy)-N-(trans-4-trifluoromethyl-cyclohexyl)-3-methyl-3H-imidazo[4,5-b]pyridine-6-carboxamide] |  | 96
20 | Cn1c(Nc2c(F)cccc2C(F)(F)F)nc2cc(C(=O)N[C@H]3CC[C@H](C(F)(F)F)CC3)c(OCC(F)F)nc21 [Example 780, 2-(2-Fluoro-6-trifluoromethyl-phenylamino)-5-(2,2-difluoro-ethoxy)-N-(trans-4-trifluoromethyl-cyclohexyl)-3-methyl-3H-imidazo[4,5-b]pyridine-6-carboxamide] |  | 100
21 | O=C(N[C@H]1CC[C@H](C(F)(F)F)CC1)c1cc2nc(Nc3c(F)cccc3C(F)(F)F)[nH]c2nc1OCC(F)F [Example 781, 2-(2-Fluoro-6-trifluoromethyl-phenylamino)-5-(2,2-difluoro-ethoxy)-N-(trans-4-trifluoromethyl-cyclohexyl)-3H-imidazo[4,5-b]pyridine-6-carboxamide] |  | 99
22 | Cn1c(Nc2ccccc2C(F)(F)F)nc2cc(C(=O)N[C@H]3CC[C@H](C(F)(F)F)CC3)c(OCC(F)F)nc21 [Example 782, 2-(2-Trifluoromethyl-phenylamino)-5-(2,2-difluoro-ethoxy)-N-(trans-4-trifluoromethyl-cyclohexyl)-3-methyl-3H-imidazo[4,5-b]pyridine-6-carboxamide] | 100 | 
23 | Cn1c(Nc2c(F)cccc2Cl)nc2cc(C(=O)N[C@H]3CC[C@H](C(F)(F)F)CC3)c(OCC(F)F)nc21 [Example 783, 2-(2-Chloro-6-fluoro-phenylamino)-5-(2,2-difluoro-ethoxy)-N-(trans-4-trifluoromethyl-cyclohexyl)-3-methyl-3H-imidazo[4,5-b]pyridine-6-carboxamide] | 100 | 
24 | O=C(N[C@H]1CC[C@H](C(F)(F)F)CC1)c1cc2nc(Nc3ccccc3C(F)(F)F)[nH]c2nc1OCC(F)F [Example 784, 2-(2-Trifluoromethyl-phenylamino)-5-(2,2-difluoro-ethoxy)-N-(trans-4-trifluoromethyl-cyclohexyl)-3H-imidazo[4,5-b]pyridine-6-carboxamide] | 97 | 
25 | O=C(N[C@H]1CC[C@H](C(F)(F)F)CC1)c1cc2nc(Nc3c(F)cccc3Cl)[nH]c2nc1OCC(F)F [Example 785, 2-(2-Chloro-6-fluoro-phenylamino)-5-(2,2-difluoro-ethoxy)-N-(trans-4-trifluoromethyl-cyclohexyl)-3H-imidazo[4,5-b]pyridine-6-carboxamide] | 100 | 
26 | Cc1ccnc(Br)c1Nc1nc2cc(C(=O)N[C@H]3CC[C@H](C(F)(F)F)CC3)c(OCC(F)F)nc2n1C [Example 786, 2-(2-Bromo-4-methyl-pyridin-3-ylamino)-5-(2,2-difluoro-ethoxy)-N-(trans-4-trifluoromethyl-cyclohexyl)-3-methyl-3H-imidazo[4,5-b]pyridine-6-carboxamide] | 92 | 
